Among the test systems are A498 renal; A549 NSCLC; BT-549 breast; CAKI-1 renal; HCT-15 colon; HS 578T breast; NCI-H23 lung; NCI-H460 lung; SK-MEL-28 melanoma; UO-31 renal.
Holding throughout (test): NCI anticancer screen, dose series, 48 h

Molecules are shown by their SMILES. Several values for one entry are separate records, joined by “and”; a condition that tells them apart may be missing. Equal entries are not always repeated.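 Method: 48-hour compound exposure of cells in 96-well plates, five concentrations, linear interpolation of endpoints. GI50: concentration for 50% inhibition of growth. TGI marks complete inhibition of growth.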

As to `O=C(Nc1n[nH]c2cc(-c3cc(F)ccc3F)ccc12)C1CC1`, the GI50 with A498 renal is above 25 µM; in the assay on A549 NSCLC it was 11.4 µM; with BT-549 breast, above 21.7 µM; with CAKI-1 renal, above 20.9 µM; with HCT-15 colon it was 8.39 µM; in the assay on HS 578T breast it was 13.1 µM. Also, the GI50 with NCI-H23 lung is 14.2 µM; with NCI-H460 lung, 8.81 µM; in the assay with SK-MEL-28 melanoma, above 14.5 µM; in the assay with UO-31 renal it was 16.1 µM. The TGI with A498 renal, in the assay with A549 NSCLC, with BT-549 breast, in the assay on CAKI-1 renal, in the assay on HCT-15 colon and with HS 578T breast was above 25 µM in each case. The TGI in the assay on NCI-H23 lung, in the assay on NCI-H460 lung, in the assay on SK-MEL-28 melanoma and in the assay on UO-31 renal was above 25 µM each time.

Regarding `Cc1n[nH]c2ccccc2c1=O`, the TGI with A498 renal, with A549 NSCLC, with BT-549 breast, in the assay on CAKI-1 renal, in the assay with HCT-15 colon and in the assay on HS 578T breast was above 100 µM each time. Besides, the TGI in the assay on NCI-H23 lung, with NCI-H460 lung, with SK-MEL-28 melanoma and with UO-31 renal was above 100 µM throughout.

Take `[N-]=[N+]=CC(=O)CCC(N)C(=O)O` (stereo unspecified): the GI50 with A498 renal was 7.72 µM; with A549 NSCLC, 2.78 µM; in the assay on CAKI-1 renal, 10.9 µM; with HCT-15 colon, 2 µM; in the assay with HS 578T breast, 42.2 µM; in the assay with NCI-H23 lung, 6.94 µM. For the same molecule, the GI50 in the assay with NCI-H460 lung was 2.93 µM; in the assay with SK-MEL-28 melanoma it was 15.3 µM; with UO-31 renal it was 8.31 µM. In addition, the TGI was above 250 µM in the assay on A498 renal; above 250 µM in the assay with A549 NSCLC; above 250 µM with BT-549 breast; 84.5 µM with CAKI-1 renal; above 222 µM with HCT-15 colon; above 250 µM in the assay with HS 578T breast. The TGI is above 215 µM with NCI-H23 lung, 147 µM in the assay with NCI-H460 lung, 202 µM in the assay on SK-MEL-28 melanoma and 219 µM in the assay with UO-31 renal.

Turning to `COc1cc(/C=N/NC(=O)c2cnn3c2NC(c2ccccc2)C3)ccc1OC1CCCC1` (stereo unspecified), the GI50 was 0.407 µM with A498 renal; 0.731 µM with A549 NSCLC; 1.46 µM in the assay with BT-549 breast; 0.556 µM in the assay with CAKI-1 renal; 0.5 µM with HCT-15 colon; 0.705 µM in the assay on HS 578T breast. Also, the GI50 in the assay with NCI-H23 lung was 1.44 µM; in the assay on NCI-H460 lung, 0.389 µM; with SK-MEL-28 melanoma it was 1.25 µM; with UO-31 renal it was 1.22 µM. Moreover, the TGI in the assay with A498 renal amounted to 2.28 µM; with A549 NSCLC it was 3.86 µM; in the assay on BT-549 breast, 5.74 µM; in the assay on CAKI-1 renal, 5.01 µM; in the assay on HCT-15 colon, 10.8 µM; with HS 578T breast it was 4.14 µM. The TGI is 8.85 µM in the assay with NCI-H23 lung, 1.56 µM in the assay on NCI-H460 lung, 9.15 µM with SK-MEL-28 melanoma and 6.59 µM with UO-31 renal.

`COC1=CC(=O)O/C1=C(\OC)C1OC1c1ccccc1` (stereo unspecified): the TGI in the assay on A498 renal, with A549 NSCLC, in the assay on BT-549 breast, with CAKI-1 renal, in the assay on HCT-15 colon and in the assay on HS 578T breast was above 100 µM in each case. Also, the TGI in the assay on NCI-H23 lung, with NCI-H460 lung, with SK-MEL-28 melanoma and in the assay with UO-31 renal was above 100 µM each time.

Take `O=C1C(=O)c2c(nc3ccc(C(F)(F)F)cn23)-c2ccccc21`: the GI50 is 1.82 µM in the assay with A498 renal; 0.513 µM in the assay with A549 NSCLC; 0.186 µM in the assay with BT-549 breast; 0.162 µM in the assay with CAKI-1 renal; 0.202 µM in the assay with HCT-15 colon; 0.206 µM in the assay with HS 578T breast. For the same molecule, the GI50 is 0.175 µM in the assay with NCI-H23 lung, 0.466 µM in the assay with NCI-H460 lung, 0.221 µM in the assay with SK-MEL-28 melanoma and 0.164 µM in the assay on UO-31 renal. Further, the TGI worked out at 3.25 µM in the assay on A498 renal; 1.23 µM in the assay with A549 NSCLC; 0.442 µM with BT-549 breast; 0.297 µM in the assay with CAKI-1 renal; 0.656 µM with HCT-15 colon; 0.523 µM in the assay with HS 578T breast. For the same molecule, the TGI came out at 0.477 µM in the assay with NCI-H23 lung, 1.08 µM in the assay with NCI-H460 lung, 0.431 µM with SK-MEL-28 melanoma and 0.345 µM in the assay on UO-31 renal.

With `Cc1cccc(C2NC(=O)c3ccccc3N2)c1` (stereo unspecified), the TGI with A498 renal was above 73.4 µM; with A549 NSCLC it was above 100 µM; in the assay on BT-549 breast it was above 100 µM; in the assay with CAKI-1 renal, above 100 µM; with HCT-15 colon, above 100 µM; with HS 578T breast, 65.1 µM. Also, the TGI with NCI-H23 lung is above 54.7 µM; with NCI-H460 lung it was above 100 µM; in the assay with SK-MEL-28 melanoma, above 100 µM; with UO-31 renal, above 100 µM.

On to `COc1ccc2c(c1)C(=O)c1c-2c(OCCCN(C)C)nc2cc(Br)ccc12`, for which the GI50 in the assay with A498 renal is 7.31 µM; with A549 NSCLC, 3.52 µM; in the assay on BT-549 breast it was 13.5 µM; in the assay with CAKI-1 renal, 11 µM; in the assay on HCT-15 colon, 4.75 µM; in the assay on HS 578T breast, 3.46 µM. Further, the GI50 is 11.3 µM with NCI-H23 lung, 2.54 µM in the assay with NCI-H460 lung, 1.87 µM with SK-MEL-28 melanoma and 1.36 µM in the assay with UO-31 renal. The TGI with A498 renal turned out to be 20.5 µM; in the assay on A549 NSCLC, 11.4 µM; in the assay on BT-549 breast, 28 µM; with CAKI-1 renal, 23.5 µM; in the assay with HCT-15 colon, 18.3 µM; with HS 578T breast, 15.4 µM. In addition, the TGI is 24.6 µM with NCI-H23 lung, 7.57 µM with NCI-H460 lung, 3.74 µM in the assay on SK-MEL-28 melanoma and 2.88 µM in the assay on UO-31 renal.

For the molecule `CCCCNC(c1ccc(Cl)cc1)C(O)c1ccc(Cl)cc1` (stereo unspecified), the GI50 is 2.29 µM in the assay on A498 renal; 3.87 µM with A549 NSCLC; 5.63 µM in the assay with BT-549 breast; 1.82 µM in the assay on CAKI-1 renal; 2.08 µM in the assay on HCT-15 colon; 4.98 µM with HS 578T breast. Moreover, the GI50 with NCI-H23 lung is 2.25 µM; in the assay on NCI-H460 lung, 1.76 µM; with SK-MEL-28 melanoma, 2.06 µM; in the assay on UO-31 renal, 1.55 µM. For the same molecule, the TGI with A498 renal stood at 5.57 µM; with A549 NSCLC, 17.8 µM; in the assay with BT-549 breast, 21.4 µM; in the assay with CAKI-1 renal, 6.63 µM; in the assay on HCT-15 colon, 5.7 µM; in the assay with HS 578T breast, 26.9 µM. In addition, the TGI in the assay on NCI-H23 lung came out at 7.59 µM; with NCI-H460 lung, 4.41 µM; with SK-MEL-28 melanoma, 4.5 µM; in the assay with UO-31 renal, 10.2 µM.

With `CC(C)C[C@@H](N)[C@@H](O)C(=O)N[C@H](C(=O)N[C@H](C(=O)N[C@@H](CC(=O)O)C(=O)O)C(C)C)C(C)C`, the GI50 in the assay with A498 renal, in the assay on A549 NSCLC, with BT-549 breast, in the assay with CAKI-1 renal, in the assay with HCT-15 colon and with HS 578T breast was above 20 µM throughout. The GI50 with NCI-H23 lung, with NCI-H460 lung, in the assay on SK-MEL-28 melanoma and in the assay with UO-31 renal was above 20 µM throughout. Also, the TGI with A498 renal, in the assay on A549 NSCLC, with BT-549 breast, in the assay with CAKI-1 renal, in the assay with HCT-15 colon and with HS 578T breast was above 20 µM in each case. In addition, the TGI in the assay with NCI-H23 lung, with NCI-H460 lung, with SK-MEL-28 melanoma and with UO-31 renal was above 20 µM throughout.

For the molecule `C[C@@H]1C[C@@H]([C@H](O)CC2CC(=O)NC(=O)C2)C(=O)[C@@H](C)C1`, the GI50 in the assay with A498 renal was 0.854 µM; in the assay on A549 NSCLC, 0.204 µM; with BT-549 breast it was 0.927 µM; with CAKI-1 renal, 0.188 µM; in the assay with HCT-15 colon, 0.284 µM; in the assay on HS 578T breast, 0.488 µM. In addition, the GI50 with NCI-H23 lung is 0.274 µM; in the assay on NCI-H460 lung, 0.234 µM; in the assay with SK-MEL-28 melanoma, 0.249 µM; in the assay on UO-31 renal, 0.23 µM. Moreover, the TGI is 1.76 µM and 1.73 µM in the assay on A549 NSCLC; 9.01 µM in the assay with BT-549 breast; 5.17 µM and 1.83 µM with CAKI-1 renal; 15.9 µM and 9.96 µM with HCT-15 colon; 4.78 µM and 0.941 µM with NCI-H23 lung; 2.01 µM and 1.34 µM in the assay on SK-MEL-28 melanoma. The TGI in the assay with UO-31 renal is 4.63 µM and 0.675 µM.

As for `OCc1ccc(N(Cc2ccc(F)cc2)Cc2ccc(F)cc2)cc1Cl`, the GI50 in the assay with A498 renal was 0.18 µM; in the assay on A549 NSCLC it was 6.72 µM; in the assay on BT-549 breast, 13.5 µM; in the assay on CAKI-1 renal, 1.7 µM; in the assay with HCT-15 colon, 9.88 µM; in the assay on HS 578T breast it was 16.2 µM. Moreover, the GI50 in the assay with NCI-H23 lung was 7.95 µM; in the assay on NCI-H460 lung it was 3.64 µM; with SK-MEL-28 melanoma, 13.9 µM; in the assay on UO-31 renal it was 3.49 µM. Besides, the TGI in the assay with A498 renal came to 0.989 µM; in the assay on A549 NSCLC, 22.1 µM; in the assay with BT-549 breast, 28.4 µM; in the assay with CAKI-1 renal, 5.87 µM; in the assay with HCT-15 colon, 24.2 µM; in the assay on HS 578T breast it was 45.5 µM. Further, the TGI in the assay on NCI-H23 lung amounted to 24.3 µM; in the assay on NCI-H460 lung, 17.1 µM; with SK-MEL-28 melanoma it was 27.6 µM; with UO-31 renal it was 16.2 µM.

`O=c1c(-c2ccc3c(c2)OCO3)coc2c3c(ccc12)OCO3`: the TGI in the assay with A498 renal is 83.1 µM; in the assay on A549 NSCLC, above 100 µM; in the assay on BT-549 breast, 32.6 µM; with CAKI-1 renal, above 100 µM; with HCT-15 colon, above 100 µM; in the assay on HS 578T breast it was 59.4 µM. The TGI in the assay on NCI-H23 lung was 40 µM; in the assay on NCI-H460 lung it was 32.1 µM; with SK-MEL-28 melanoma, above 100 µM; in the assay on UO-31 renal, above 100 µM.

The record behind these values is PubChem BioAssay (NCI).
